From US20260053861A1, “CELL COMPOSITIONS AND METHODS OF USING THE SAME” (THE REGENTS OF THE UNIVERSITY OF CALIFORNIA, priority 2022, published 2026)
Structures can show the parent of a compound that is named as a salt.

Test system: hPSC-SCs
Conditions: not given

| Compound | z.score.t |
| --- | --- |
| Cl.O=c1[nH]oc2c1CCNC2 [THIP Hydrochloride] | 0.9162 |
| CCC(=O)O[C@H]1CC[C@H]2[C@@H]3CCC4=CC(=O)CC[C@]4(C)[C@H]3CC[C@]12C [Testosterone propionate] | −1.014 |
| CCCCNc1ccc(C(=O)OCCN(C)C)cc1.Cl [TetracaÂ<ne hydrochloride] | −0.2276 |
| Cn1c(=O)c2[nH]cnc2n(C)c1=O.O [Theophylline monohydrate] | −1.123 |
| COc1c(O[C@@H]2O[C@H](CO)[C@@H](O)[C@H](O)[C@H]2O)cc2c(c1OC)-c1ccc(SC)c(=O)cc1[C@@H](NC(C)=O)CC2 [Thiocolchicoside] | 1.11 |
| C=C(NC(=O)C(=C)NC(=O)c1csc(C2=N[C@@H]3c4csc(n4)[C@H]4NC(=O)c5csc(n5)[C@H]([C@](C)(O)[C@@H](C)O)NC(=O)[C@H]5CSC(=N5)/C(=C/C)NC(=O)[C@H]([C@@H](C)O)NC(=O)c5csc(n5)[C@]3(CC2)NC(=O)[C@H](C)NC(=O)C(=C)NC(=O)[C@H](C)NC(=O)[C@H]([C@@H](C)CC)N[C@@H]2C=Cc3c([C@H](C)O)cc(nc3[C@H]2O)C(=O)O[C@@H]4C)n1)C(N)=O [Thiostrepton] | 0.6013 |
| N[C@@H](Cc1cc(I)c(Oc2cc(I)c(O)c(I)c2)c(I)c1)C(=O)O [Thyroxine (L)] | −0.8478 |
| CCNC1(c2cccs2)CCCCC1=O.Cl (stereo not shown) [Tiletamine hydrochloride] | 1.958 |
| C[C@H]1CC[C@]2(NC1)O[C@H]1C[C@H]3[C@@H]4CC[C@H]5C[C@@H](O)CC[C@]5(C)[C@H]4CC[C@]3(C)[C@H]1[C@@H]2C [Tomatidine] | −0.2904 |
| C[C@H]1CC[C@]2(NC1)O[C@H]1C[C@H]3[C@@H]4CC[C@H]5C[C@@H](O[C@@H]6O[C@H](CO)[C@H](O[C@@H]7O[C@H](CO)[C@@H](O)[C@H](O[C@@H]8OC[C@@H](O)[C@H](O)[C@H]8O)[C@H]7O[C@@H]7O[C@H](CO)[C@@H](O)[C@H](O)[C@H]7O)[C@H](O)[C@H]6O)CC[C@]5(C)[C@H]4CC[C@]3(C)[C@H]1[C@@H]2C [Tomatine] | −1.873 |
| C(#CCN1CCCC1)CN1CCCC1.Cl.Cl [Tremorine dihydrochloride] | −0.4139 |

Same assay, conditions: HTS viability of hPSC-SCs in the presence of 30 mM glucose; Prestwick library; Table S4

| Compound | z.score.t |
| --- | --- |
| COc1ncnc(NS(=O)(=O)c2ccc(N)cc2)c1OC [Sulfadoxine] | 0.8015 |
| [H]/N=C(/N)NS(=O)(=O)c1ccc(N)cc1 [Sulfaguanidine] | −0.2425 |
| Cc1ccnc(NS(=O)(=O)c2ccc(N)cc2)n1 [Sulfamerazine] | 0.3022 |
| COc1cnc(NS(=O)(=O)c2ccc(N)cc2)nc1 [Sulfameter] | 1.493 |
| Cc1cc(C)nc(NS(=O)(=O)c2ccc(N)cc2)n1 [Sulfamethazine sodium salt] | 0.3022 |
| Cc1nnc(NS(=O)(=O)c2ccc(N)cc2)s1 [Sulfamethizole] | 1.132 |
| Cc1cc(NS(=O)(=O)c2ccc(N)cc2)no1 [Sulfamethoxazole] | 0.02534 |
| COc1ccc(NS(=O)(=O)c2ccc(N)cc2)nn1 [Sulfamethoxypyridazine] | 0.2139 |
| COc1cc(NS(=O)(=O)c2ccc(N)cc2)ncn1 [Sulfamonomethoxine] | 0.453 |
| Nc1ccc(S(N)(=O)=O)cc1 [Sulfanilamide] | −0.4325 |
| Nc1ccc(S(=O)(=O)Nc2ccnn2-c2ccccc2)cc1 [Sulfaphenazole] | 0.4626 |
| Nc1ccc(S(=O)(=O)Nc2ccccn2)cc1 [Sulfapyridine] | 1.853 |
| Nc1ccc(S(=O)(=O)Nc2cnc3ccccc3n2)cc1 [Sulfaquinoxaline sodium salt] | 1.117 |
| O=C(O)c1cc(/N=N/c2ccc(S(=O)(=O)Nc3ccccn3)cc2)ccc1O [Sulfasalazine] | 0.1344 |
| Nc1ccc(S(=O)(=O)Nc2nccs2)cc1 [Sulfathiazole] | 0.9109 |
| O=C1C(CC[S+]([O-])c2ccccc2)C(=O)N(c2ccccc2)N1c1ccccc1 (stereo not shown) [Sulfinpyrazone] | 0.3922 |
| Cc1noc(NS(=O)(=O)c2ccc(N)cc2)c1C [Sulfisoxazole] | 0.1556 |
| CC1=C(CC(=O)O)c2cc(F)ccc2/C1=C\c1ccc([S+](C)[O-])cc1 (stereo not shown) [Sulindac] | −0.2425 |
| COc1cc([S+](C)[O-])ccc1-c1nc2ncccc2[nH]1 (stereo not shown) [Sulmazole] | 0.6376 |
| CCCCCCCCNC(C)C(O)c1ccc(SC(C)C)cc1 (stereo not shown) [Suloctidil] | −0.649 |
| CCN1CCCC1CNC(=O)c1cc(S(N)(=O)=O)ccc1OC (stereo not shown) [Sulpiride] | 0.1594 |
| CC(C(=O)O)c1ccc(C(=O)c2cccs2)cc1 (stereo not shown) [Suprofen] | 0.2361 |

| Compound | z.score.t |
| --- | --- |
| CCCCC1(COC(=O)CCC(=O)O)C(=O)N(c2ccccc2)N(c2ccccc2)C1=O [Suxibuzone] | 0.9352 |
| CCOC(=O)Oc1c(OC)cc(C(=O)O[C@@H]2C[C@@H]3CN4CCc5c([nH]c6cc(OC)ccc56)[C@H]4C[C@@H]3[C@H](C(=O)OC)[C@H]2OC)cc1OC [Syrosingopine] | −0.4543 |
| Nc1c2c(nc3ccccc13)CCCC2 [Tacrine hydrochloride hydrate] | −0.7049 |
| CC1(C)S[C@@H]2[C@H](NC(=O)[C@H](N)c3ccccc3)C(=O)N2[C@H]1C(=O)OC1OC(=O)c2ccccc21 (stereo partly shown) [Talampicillin hydrochloride] | −0.8111 |
| CC/C(=C(\c1ccccc1)c1ccc(OCCN(C)C)cc1)c1ccccc1 [Tamoxifen citrate] | −1.827 |
| Cc1scc2c1N(C(=O)CN1CCN(C)CC1)c1ccccc1NC2=O [Telenzepine dihydrochloride] | 0.5452 |
| CN1C(C(=O)Nc2ccccn2)=C(O)c2sccc2S1(=O)=O [Tenoxicam] | 1.659 |
| COc1cc2nc(N3CCN(C(=O)C4CCCO4)CC3)nc(N)c2cc1OC (stereo not shown) [Terazosin hydrochloride] | 0.2582 |
| CC(C)N1CCN(c2ccc(OCC3COC(Cn4cncn4)(c4ccc(Cl)cc4Cl)O3)cc2)CC1 (stereo not shown) [Terconazole] | −0.07901 |
| CC(C)(C)c1ccc(C(O)CCCN2CCC(C(O)(c3ccccc3)c3ccccc3)CC2)cc1 (stereo not shown) [Terfenadine] | −0.8513 |
| CN(C)[C@@H]1C(O)=C(C(N)=O)C(=O)[C@@]2(O)C(O)=C3C(=O)c4c(O)cccc4[C@@](C)(O)[C@H]3C[C@@H]12 [Tetracycline hydrochloride] | −0.2425 |
| O.O=C1C(O)=C(O)C(=O)C(O)=C1O [Tetrahydroxy-1,4-quinone monohydrate] | 1.323 |
| c1ccc2c(c1)CCCC2C1=NCCN1 (stereo not shown) [Tetrahydrozoline hydrochloride] | 0.81 |
| c1ccc(C2CN3CCSC3=N2)cc1 (stereo not shown) [Tetramisole hydrochloride] | −0.3319 |
| COc1ccc2cc1Oc1ccc(cc1)C[C@H]1c3cc(c(OC)cc3CCN1C)Oc1c(OC)c(OC)cc3c1[C@H](C2)N(C)CC3 [Tetrandrine] | −0.4538 |
| O=C1CCC(N2C(=O)c3ccccc3C2=O)C(=O)N1 (stereo not shown) [Thalidomide] | −1.821 |
| Cn1cnc2c1c(=O)[nH]c(=O)n2C [Theobromine] | −1.169 |
| Cc1ncc(C[n+]2csc(CCO)c2C)c(N)n1 [Thiamine hydrochloride] | −0.865 |
| CS(=O)(=O)c1ccc([C@@H](O)[C@@H](CO)NC(=O)C(Cl)Cl)cc1 [Thiamphenicol] | 1.099 |
| S=C(NC1CCCCC1)N1CCC(c2cnc[nH]2)CC1 [Thioperamide maleate] | 0.8825 |
| CSc1ccc2c(c1)N(CCC1CCCCN1C)c1ccccc1S2 (stereo not shown) [Thioridazine hydrochloride] | −1.898 |
| O=C(O)CNC(=O)C(CS)Cc1ccccc1 (stereo not shown) [Thiorphan] | 0.563 |

| Compound | z.score.t |
| --- | --- |
| CCCCCCCCCCCCCCCC[N+](C)(C)CCN(Cc1ccc(OC)cc1)c1ncccn1 [Thonzonium bromide] | −1.884 |
| c1ccc2[nH]c(-c3cscn3)nc2c1 [Tiabendazole] | 1.638 |
| CCN(CC)CCNC(=O)c1cc(S(C)(=O)=O)ccc1OC [Tiapride hydrochloride] | 0.5452 |
| CC(C(=O)O)c1ccc(C(=O)c2ccccc2)s1 (stereo not shown) [Tiaprofenic acid] | 0.04918 |
| CC1(C)S[C@@H]2[C@H](NC(=O)[C@H](C(=O)O)c3ccsc3)C(=O)N2[C@H]1C(=O)O [Ticarcillin sodium] | −0.6389 |
| Clc1ccccc1CN1CCc2sccc2C1 [Ticlopidine hydrochloride] | 0.7034 |
| CCS(=O)(=O)CCn1c([N+](=O)[O-])cnc1C [Tinidazole] | 1.624 |
| NC[C@H]1O[C@H](O[C@H]2[C@H](O)[C@@H](O[C@H]3O[C@H](CO)[C@@H](O)[C@H](N)[C@H]3O)[C@H](N)C[C@@H]2N)[C@H](N)C[C@@H]1O [Tobramycin] | −0.3936 |
| Cc1cccc(C)c1NC(=O)C(C)N (stereo not shown) [Tocainide hydrochloride] | 0.8938 |
| Cc1c(C)c2c(c(C)c1O)CC[C@@](C)(CCC[C@H](C)CCC[C@H](C)CCCC(C)C)O2 [Tocopherol (R,S)] | −0.7233 |
| CCOC(=O)NNc1nncc2ccccc12 [Todralazine hydrochloride] | −0.4444 |
| Cc1ccc(S(=O)(=O)NC(=O)NN2CCCCCC2)cc1 [Tolazamide] | 0.1767 |
| c1ccc(CC2=NCCN2)cc1 [Tolazoline hydrochloride] | 1.268 |
| Cc1c(Cl)cccc1Nc1ccccc1C(=O)O [Tolfenamic acid] | −0.528 |
| Cc1ccc(C(=O)c2ccc(CC(=O)O)n2C)cc1 [Tolmetin sodium salt dihydrate] | −0.05622 |
| Cc1cccc(N(C)C(=S)Oc2ccc3ccccc3c2)c1 [Tolnaftate] | 0.378 |
| Cc1cccc(Nc2ccncc2S(=O)(=O)NC(=O)NC(C)C)c1 [Torsemide] | 0.2395 |
| CCCCNc1c(C(=O)OCC)c(C)nc2c1cnn2CC [Tracazolate hydrochloride] | −0.9487 |
| NC[C@H]1CC[C@H](C(=O)O)CC1 [Tranexamic acid] | 1.088 |
| N[C@@H]1C[C@H]1c1ccccc1 [Tranylcypromine hydrochloride] | 0.08508 |
| O=c1n(CCCN2CCN(c3cccc(Cl)c3)CC2)nc2ccccn12 [Trazodone hydrochloride] | 0.4346 |
